Several values for one entry are separate records, joined by “and”; a condition that tells them apart may be missing. Equal values may be shown once.
Assays:
carageenan-induced edema = assay: inhibition of carrageenan-induced edema; format: in vivo, male Wistar rat; conditions: oral
Protocol: The inflammation is produced in the male Wistar rat by injection of 0.1 ml of a 0.5% suspension of carageenan in physiological serum, into the muscular fascia of the metatarsal region of the hind foot of the animal. The test substance is administered orally at the same time as the carageenan or 30 or 60 min before carageenan. The edema is measured by plethysmometry three hours after the adminstration of the carrageenan.

[1] = oral toxicity (mortality) in the Wistar rat; format: in vivo; conditions: in vivo, 3000 mg/kg
Protocol: The percentages of mortality produced by the compounds of this invention when administered orally to Swiss mice are shown in Table 1. The animals, free from specific pathogenic organisms were housed in an air conditioned room for 24 to 48 hours before the start of the experiment. They were separated into groups of 5 males and 5 females. The materials were administered to animals which had been fasted for 24 hours by means of a gastric tube in suspension in a 6% thickened julep using a volume equivalent to 0.1 ml per 10 g of body weight. […] They remained under observation for two weeks before being sacrificed and autopsied.
The toxicities of the compounds of Examples 2 and 3 were determined in the Wistar rat. The protocol which was followed was the same as that described for the mice, except that the compounds were administered in a volume equivalent to 0.5 ml per 100 g of body weight of rat. […] The product of Example 3 produced no mortality at 2000 mg/kg and 20% mortality at 3000 mg/kg.

Structure (SMILES): Cc1ccc(C=Nc2ccc3c(c2)OCO3)s1 [Example 2, N-(5-methyl-2-thienylidene)-5-aminobenzodioxole-1,3]
- % inhibiting activity on carrageenan-induced edema (carageenan-induced edema; To - 30, 75 mg/kg): 21%
- % inhibiting activity on carrageenan-induced edema (carageenan-induced edema; To - 30, 150 mg/kg): 47%
- % inhibiting activity on carrageenan-induced edema (carageenan-induced edema; To - 30, 300 mg/kg): 61%
- % inhibiting activity on carrageenan-induced edema (carageenan-induced edema; To - 60, 75 mg/kg): 15%
- % inhibiting activity on carrageenan-induced edema (carageenan-induced edema; To - 60, 150 mg/kg): 26%
- % inhibiting activity on carrageenan-induced edema (carageenan-induced edema; To - 60, 225 mg/kg): 49%
- % inhibiting activity on carrageenan-induced edema (carageenan-induced edema; To - 60, 300 mg/kg): 66%
- % inhibiting activity on carrageenan-induced edema (carageenan-induced edema; at To, 100 mg/kg): 30%
- % inhibiting activity on carrageenan-induced edema (carageenan-induced edema; at To, 150 mg/kg): 64%
- % inhibiting activity on carrageenan-induced edema (carageenan-induced edema; at To, 200 mg/kg): 33%
- % inhibiting activity on carrageenan-induced edema (carageenan-induced edema; at To, 300 mg/kg): 59%

Structure (SMILES): C(=Nc1ccc2c(c1)OCO2)c1cccnc1 [Example 3, N-(3-pyridylidene)-5-aminobenzodioxole-1,3]
- mortality at 336 h [1]: 20%
- % inhibiting activity on carrageenan-induced edema (carageenan-induced edema; To - 30 (30 min before carrageenan), 25 mg/kg): 34%
- % inhibiting activity on carrageenan-induced edema (carageenan-induced edema; To - 30, 50 mg/kg): 41% and 38%
- % inhibiting activity on carrageenan-induced edema (carageenan-induced edema; To - 30, 75 mg/kg): 44%
- % inhibiting activity on carrageenan-induced edema (carageenan-induced edema; To - 30, 100 mg/kg): 50% and 41%
- % inhibiting activity on carrageenan-induced edema (carageenan-induced edema; To - 30, 150 mg/kg): 53%
- % inhibiting activity on carrageenan-induced edema (carageenan-induced edema; To - 30, 200 mg/kg): 66%
- % inhibiting activity on carrageenan-induced edema (carageenan-induced edema; To - 30, 400 mg/kg): 67% and 72%
- % inhibiting activity on carrageenan-induced edema (carageenan-induced edema; To - 60 (60 min before carrageenan), 25 mg/kg): 25%
- % inhibiting activity on carrageenan-induced edema (carageenan-induced edema; To - 60, 50 mg/kg): 42%
- % inhibiting activity on carrageenan-induced edema (carageenan-induced edema; To - 60, 75 mg/kg): 40%
- % inhibiting activity on carrageenan-induced edema (carageenan-induced edema; To - 60, 100 mg/kg): 39%
- % inhibiting activity on carrageenan-induced edema (carageenan-induced edema; To - 60, 200 mg/kg): 58%
- % inhibiting activity on carrageenan-induced edema (carageenan-induced edema; To - 60, 400 mg/kg): 69%
- % inhibiting activity on carrageenan-induced edema (carageenan-induced edema; at To, 100 mg/kg): 57% and 29%
- % inhibiting activity on carrageenan-induced edema (carageenan-induced edema; at To, 200 mg/kg): 28% and 36%
- % inhibiting activity on carrageenan-induced edema (carageenan-induced edema; at To, 400 mg/kg): 55% and 39%

— patent US4333938A, “Imino derivatives of 5-aminobenzodioxole-1,3 which are useful as medicaments” (Laboratoires Sarget, priority 1979, dated 1982)
